Experimental findings from patent US12723063B2, “GIPR-agonist compounds” (Eli Lilly and Company, priority 2019, dated 2026) are described below.

*1 amine or outer side, *2 acyl side, *3 side chain or, on linkers, in order; H or OH if unused. Where a SMILES comes first, the peptide text is derived from it. Side-chain parts run from the residue outwards. [ ]: non-standard residue; d: D form. The star is where a group is joined. C20 diacid = O=C(O)CCCCCCCCCCCCCCCCCCC(=O)*; C18 diacid = O=C(O)CCCCCCCCCCCCCCCCC(=O)*; γGlu = O=C(O)[C@H](CCC(=O)[*:2])N[*:1]; αMeY = C[C@](N)(Cc1ccc(O)cc1)C(=O)O; 4Pal = N[C@@H](Cc1ccncc1)C(=O)O; αMeL = CC(C)C[C@](C)(N)C(=O)O; Iva = CC[C@](C)(N)C(=O)O; AEEA = NCCOCCOCC(=O)O; Aib = CC(C)(N)C(=O)O

One may read the Ki as the equilibrium dissociation constant of an inhibitor or competing ligand from its target.

For one experiment, the target named is T1, human GcgR (Homo sapiens, UniProt P47871).
T1 construct: expressed in transfected cells; crude membranes
T1 sequence (P47871 26-477): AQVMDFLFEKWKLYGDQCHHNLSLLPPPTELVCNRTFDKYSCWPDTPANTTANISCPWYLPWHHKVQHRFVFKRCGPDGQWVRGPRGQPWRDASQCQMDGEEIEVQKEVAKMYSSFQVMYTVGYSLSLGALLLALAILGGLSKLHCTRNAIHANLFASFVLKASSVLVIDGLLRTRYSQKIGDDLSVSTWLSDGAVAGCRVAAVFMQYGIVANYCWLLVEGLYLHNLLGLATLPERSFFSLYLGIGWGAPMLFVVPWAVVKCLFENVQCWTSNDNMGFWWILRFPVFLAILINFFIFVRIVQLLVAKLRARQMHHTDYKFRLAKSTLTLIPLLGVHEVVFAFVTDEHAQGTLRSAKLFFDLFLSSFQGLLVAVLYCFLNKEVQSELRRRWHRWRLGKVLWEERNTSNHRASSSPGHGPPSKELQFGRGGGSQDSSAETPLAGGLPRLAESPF
Kind of experiment: [125I]-Glucagon binding, SPA with WGA beads, 0.1% bacitracin. The note with it: geometric mean, read-out: hGcgR Ki. The method in brief:
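SPA competition binding with WGA beads on crude membranes from HEK293 cells stably expressing hGcgR. Buffer: 25 mM HEPES pH 7.4, 2.5 mM CaCl2, 1 mM MgCl2, 0.1% bacitracin, 0.003% Tween-20; 10-point 3-fold dilutions, NSB with 1 μM Gcg.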

The target in another experiment is T2, human GIPR (Homo sapiens, UniProt P48546).
T2 construct: expressed in transfected cells; crude membranes
T2 sequence (P48546 22-466): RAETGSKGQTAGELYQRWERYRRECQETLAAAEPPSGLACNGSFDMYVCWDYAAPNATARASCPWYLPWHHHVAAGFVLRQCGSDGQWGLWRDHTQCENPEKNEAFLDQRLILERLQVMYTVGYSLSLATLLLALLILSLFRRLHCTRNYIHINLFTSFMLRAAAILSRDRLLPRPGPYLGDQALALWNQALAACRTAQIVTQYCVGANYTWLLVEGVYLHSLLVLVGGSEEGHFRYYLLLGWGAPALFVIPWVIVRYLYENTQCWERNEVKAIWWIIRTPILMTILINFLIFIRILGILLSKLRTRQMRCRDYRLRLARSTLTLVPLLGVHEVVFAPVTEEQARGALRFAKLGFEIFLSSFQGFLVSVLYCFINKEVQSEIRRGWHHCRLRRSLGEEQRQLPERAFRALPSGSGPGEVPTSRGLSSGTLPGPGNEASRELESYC
Put plainly: [125I]-GIP binding, SPA with WGA beads, 0.1% bacitracin. The note with it: geometric mean, read-out: hGIPR Ki. The procedure, abridged:
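Ki values are geometric means (SEM, n independent days), derived from four-parameter nonlinear regression of IC50. Membranes came from hGIPR-expressing CHO cells.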

The target of the next experiment is T3, human GLP-1R (Homo sapiens, UniProt P43220).
T3 construct: expressed in transfected cells; crude membranes
T3 sequence (P43220 24-463): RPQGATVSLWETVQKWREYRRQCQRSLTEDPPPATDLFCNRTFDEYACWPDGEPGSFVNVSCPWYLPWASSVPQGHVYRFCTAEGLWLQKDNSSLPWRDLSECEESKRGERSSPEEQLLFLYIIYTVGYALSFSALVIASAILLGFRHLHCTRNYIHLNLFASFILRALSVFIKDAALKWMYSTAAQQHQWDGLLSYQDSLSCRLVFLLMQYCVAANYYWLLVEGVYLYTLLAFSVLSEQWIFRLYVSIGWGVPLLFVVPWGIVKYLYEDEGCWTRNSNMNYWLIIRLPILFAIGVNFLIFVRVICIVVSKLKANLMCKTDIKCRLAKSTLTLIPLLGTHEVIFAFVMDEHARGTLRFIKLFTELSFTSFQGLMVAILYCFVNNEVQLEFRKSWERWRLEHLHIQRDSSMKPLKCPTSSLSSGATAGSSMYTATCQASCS
Put plainly: [125I]-GLP-1 binding, SPA with WGA beads, 0.1% bacitracin. To be noted: geometric mean, read-out: hGLP1R Ki. The method in brief: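 Binding buffer was 25 mM HEPES pH 7.4 with 2.5 mM CaCl2, 1 mM MgCl2, 0.1% (w/v) bacitracin, 0.003% Tween-20 and EDTA-free protease inhibitors. Four-parameter regression gave IC50, converted to Ki (geometric mean, SEM, n independent days).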

As for `CC[C@H](C)[C@H](NC(=O)[C@H](CO)NC(=O)[C@H](Cc1ccc(O)cc1)NC(=O)[C@H](CC(=O)O)NC(=O)[C@H](CO)NC(=O)[C@@H](NC(=O)[C@](C)(CC)NC(=O)[C@@H](NC(=O)CNC(=O)[C@H](CCC(=O)O)NC(=O)C(C)(C)NC(=O)[C@@H](N)Cc1ccc(O)cc1)[C@@H](C)O)[C@@H](C)CC)C(=O)N[C@@](C)(CC(C)C)C(=O)N[C@@H](CC(C)C)C(=O)N[C@@H](CC(=O)O)C(=O)N[C@@H](CCCCN)C(=O)N[C@@H](CCCCNC(=O)COCCOCCNC(=O)COCCOCCNC(=O)CC[C@H](NC(=O)CCCCCCCCCCCCCCCCCCC(=O)O)C(=O)O)C(=O)N[C@@H](Cc1c[nH]cn1)C(=O)N[C@@H](CCC(N)=O)C(=O)NC(C)(C)C(=O)N[C@@H](CC(=O)O)C(=O)N[C@@H](Cc1ccccc1)C(=O)N[C@H](C(=O)N[C@@H](CCC(=O)O)C(=O)N[C@@H](Cc1ccncc1)C(=O)N[C@@H](CC(C)C)C(=O)N[C@@H](CC(C)C)C(=O)N[C@@H](CCC(=O)O)C(=O)N[C@@H](C)C(=O)NCC(=O)N1CCC[C@H]1C(=O)N[C@@H](CO)C(=O)N[C@@H](CO)C(=O)NCC(=O)N[C@@H](C)C(=O)N1CCC[C@H]1C(=O)N1CCC[C@H]1C(=O)N1CCC[C@H]1C(=O)N[C@@H](CO)C(N)=O)C(C)C` [Example 88] (H-Y[Aib]EGT[Iva]ISDYSI[αMeL]LDKK([AEEA-AEEA-γGlu-C20 diacid])HQ[Aib]DFVE[4Pal]LLEAGPSSGAPPPS-NH2), the values for the inhibition constant Ki on human GcgR, on human GIPR and at human GLP-1R were 788 nM, 0.083 nM and 261 nM, respectively.
`CC[C@H](C)[C@H](NC(=O)[C@H](CC(C)C)NC(=O)[C@@H](NC(=O)CNC(=O)[C@H](CCC(=O)O)NC(=O)C(C)(C)NC(=O)[C@@H](N)Cc1ccc(O)cc1)[C@@H](C)O)C(=O)N[C@@H](CO)C(=O)N[C@@H](CC(=O)O)C(=O)N[C@@H](Cc1ccc(O)cc1)C(=O)N[C@@H](CO)C(=O)N[C@H](C(=O)N[C@@](C)(CC(C)C)C(=O)N[C@@H](CC(C)C)C(=O)N[C@@H](CC(=O)O)C(=O)N[C@@H](CCCCN)C(=O)N[C@@H](CCCCNC(=O)COCCOCCNC(=O)COCCOCCNC(=O)CC[C@H](NC(=O)CCCCCCCCCCCCCCCCCCC(=O)O)C(=O)O)C(=O)N[C@@H](Cc1c[nH]cn1)C(=O)N[C@@H](CCC(N)=O)C(=O)NC(C)(C)C(=O)N[C@@H](CC(=O)O)C(=O)N[C@@H](Cc1ccccc1)C(=O)N[C@H](C(=O)N[C@@H](CCC(=O)O)C(=O)N[C@@H](Cc1ccncc1)C(=O)N[C@@H](CC(C)C)C(=O)N[C@@H](CC(C)C)C(=O)N[C@@H](CCC(=O)O)C(=O)N[C@@H](C)C(=O)NCC(=O)N1CCC[C@H]1C(=O)N[C@@H](CO)C(=O)N[C@@H](CO)C(=O)NCC(=O)N[C@@H](C)C(=O)N1CCC[C@H]1C(=O)N1CCC[C@H]1C(=O)N1CCC[C@H]1C(=O)N[C@@H](CO)C(N)=O)C(C)C)[C@@H](C)CC` [Example 89] (H-Y[Aib]EGTLISDYSI[αMeL]LDKK([AEEA-AEEA-γGlu-C20 diacid])HQ[Aib]DFVE[4Pal]LLEAGPSSGAPPPS-NH2): the values for the inhibition constant Ki on human GcgR, at human GIPR and on human GLP-1R were 611 nM, 0.072 nM and 294 nM, respectively.
Taken in the same sequence, the figures for `CC[C@H](C)[C@H](NC(=O)[C@H](Cc1ccccc1)NC(=O)[C@@H](NC(=O)CNC(=O)[C@H](CCC(=O)O)NC(=O)C(C)(C)NC(=O)[C@@H](N)Cc1ccc(O)cc1)[C@@H](C)O)C(=O)N[C@@H](CO)C(=O)N[C@@H](CC(=O)O)C(=O)N[C@@H](Cc1ccc(O)cc1)C(=O)N[C@@H](CO)C(=O)N[C@H](C(=O)N[C@@](C)(CC(C)C)C(=O)N[C@@H](CC(C)C)C(=O)N[C@@H](CC(=O)O)C(=O)N[C@@H](CCCCN)C(=O)N[C@@H](CCCCNC(=O)COCCOCCNC(=O)COCCOCCNC(=O)CC[C@H](NC(=O)CCCCCCCCCCCCCCCCCCC(=O)O)C(=O)O)C(=O)N[C@@H](Cc1c[nH]cn1)C(=O)N[C@@H](CCC(N)=O)C(=O)NC(C)(C)C(=O)N[C@@H](CC(=O)O)C(=O)N[C@@H](Cc1ccccc1)C(=O)N[C@H](C(=O)N[C@@H](CCC(=O)O)C(=O)N[C@@](C)(Cc1ccc(O)cc1)C(=O)N[C@@H](CC(C)C)C(=O)N[C@@H](CC(C)C)C(=O)N[C@@H](CCC(=O)O)C(=O)N[C@@H](C)C(=O)NCC(=O)N1CCC[C@H]1C(=O)N[C@@H](CO)C(=O)N[C@@H](CO)C(=O)NCC(=O)N[C@@H](C)C(=O)N1CCC[C@H]1C(=O)N1CCC[C@H]1C(=O)N1CCC[C@H]1C(=O)N[C@@H](CO)C(N)=O)C(C)C)[C@@H](C)CC` [Example 90] (H-Y[Aib]EGTFISDYSI[αMeL]LDKK([AEEA-AEEA-γGlu-C20 diacid])HQ[Aib]DFVE[αMeY]LLEAGPSSGAPPPS-NH2) were 112 nM, 0.129 nM and 102 nM.
Consider `CC[C@H](C)[C@H](NC(=O)[C@H](Cc1ccccc1)NC(=O)[C@@H](NC(=O)CNC(=O)[C@H](CCC(=O)O)NC(=O)C(C)(C)NC(=O)[C@@H](N)Cc1ccc(O)cc1)[C@@H](C)O)C(=O)N[C@@H](CO)C(=O)N[C@@H](CC(=O)O)C(=O)N[C@@H](Cc1ccc(O)cc1)C(=O)N[C@@H](CO)C(=O)N[C@H](C(=O)N[C@@](C)(CC(C)C)C(=O)N[C@@H](CC(C)C)C(=O)N[C@@H](CC(=O)O)C(=O)N[C@@H](CCCCN)C(=O)N[C@@H](CCCCNC(=O)COCCOCCNC(=O)COCCOCCNC(=O)CC[C@H](NC(=O)CCCCCCCCCCCCCCCCCCC(=O)O)C(=O)O)C(=O)N[C@@H](Cc1c[nH]cn1)C(=O)N[C@@H](CCC(N)=O)C(=O)NC(C)(C)C(=O)N[C@@H](CC(=O)O)C(=O)N[C@@H](Cc1ccccc1)C(=O)N[C@H](C(=O)N[C@@H](CCC(=O)O)C(=O)N[C@@](C)(Cc1ccc(O)cc1)C(=O)N[C@@H](CC(C)C)C(=O)N[C@@H](CC(C)C)C(=O)N[C@@H](CCC(=O)O)C(=O)NCC(=O)NCC(=O)N1CCC[C@H]1C(=O)N[C@@H](CO)C(=O)N[C@@H](CO)C(=O)NCC(=O)N[C@@H](C)C(=O)N1CCC[C@H]1C(=O)N1CCC[C@H]1C(=O)N1CCC[C@H]1C(=O)N[C@@H](CO)C(N)=O)C(C)C)[C@@H](C)CC` [Example 91] (H-Y[Aib]EGTFISDYSI[αMeL]LDKK([AEEA-AEEA-γGlu-C20 diacid])HQ[Aib]DFVE[αMeY]LLEGGPSSGAPPPS-NH2), for which the inhibition constant (Ki) was found to be 54.4 nM at human GcgR, 0.122 nM on human GIPR and 37.4 nM at human GLP-1R.
For `CC[C@H](C)[C@H](NC(=O)[C@H](CCCCN)NC(=O)[C@H](CC(=O)O)NC(=O)[C@H](CC(C)C)NC(=O)[C@](C)(CC(C)C)NC(=O)[C@@H](NC(=O)[C@H](CO)NC(=O)[C@H](Cc1ccc(O)cc1)NC(=O)[C@H](CC(=O)O)NC(=O)[C@H](CO)NC(=O)[C@@H](NC(=O)[C@H](Cc1ccccc1)NC(=O)[C@@H](NC(=O)CNC(=O)[C@H](CCC(=O)O)NC(=O)C(C)(C)NC(=O)[C@@H](N)Cc1ccc(O)cc1)[C@@H](C)O)[C@@H](C)CC)[C@@H](C)CC)C(=O)N[C@@H](Cc1c[nH]cn1)C(=O)N[C@@H](CCC(N)=O)C(=O)NC(C)(C)C(=O)N[C@@H](CC(=O)O)C(=O)N[C@@H](Cc1ccccc1)C(=O)N[C@H](C(=O)N[C@@H](CCC(=O)O)C(=O)N[C@@H](Cc1ccc(O)cc1)C(=O)N[C@@H](CCCCNC(=O)COCCOCCNC(=O)COCCOCCNC(=O)CC[C@H](NC(=O)CCCCCCCCCCCCCCCCCCC(=O)O)C(=O)O)C(=O)N[C@@H](CC(C)C)C(=O)N[C@@H](CCC(=O)O)C(=O)N[C@@H](CCC(N)=O)C(=O)NCC(=O)N1CCC[C@H]1C(=O)N[C@@H](CO)C(=O)N[C@@H](CO)C(=O)NCC(=O)N[C@@H](C)C(=O)N1CCC[C@H]1C(=O)N1CCC[C@H]1C(=O)N1CCC[C@H]1C(=O)N[C@@H](CO)C(N)=O)C(C)C` [Example 92] (H-Y[Aib]EGTFISDYSI[αMeL]LDKIHQ[Aib]DFVEYK([AEEA-AEEA-γGlu-C20 diacid])LEQGPSSGAPPPS-NH2) the same measures were > 958 nM, 0.0331 nM and > 902 nM.
For `CC[C@H](C)[C@H](NC(=O)[C@H](CCCCN)NC(=O)[C@H](CC(=O)O)NC(=O)[C@H](CC(C)C)NC(=O)[C@H](CC(C)C)NC(=O)[C@@H](NC(=O)[C@H](CO)NC(=O)[C@H](Cc1ccc(O)cc1)NC(=O)[C@H](CC(=O)O)NC(=O)[C@H](CO)NC(=O)[C@@H](NC(=O)[C@H](Cc1ccccc1)NC(=O)[C@@H](NC(=O)CNC(=O)[C@H](CCC(=O)O)NC(=O)[C@@H](C)NC(=O)[C@@H](N)Cc1ccc(O)cc1)[C@@H](C)O)[C@@H](C)CC)[C@@H](C)CC)C(=O)N[C@@H](C)C(=O)N[C@@H](CCC(N)=O)C(=O)NC(C)(C)C(=O)N[C@@H](CC(=O)O)C(=O)N[C@@H](Cc1ccccc1)C(=O)N[C@H](C(=O)N[C@@H](CC(N)=O)C(=O)N[C@@H](Cc1c[nH]c2ccccc12)C(=O)N[C@@H](CCCCNC(=O)COCCOCCNC(=O)COCCOCCNC(=O)CC[C@H](NC(=O)CCCCCCCCCCCCCCCCC(=O)O)C(=O)O)C(=O)N[C@@H](CC(C)C)C(=O)N[C@@H](C)C(=O)N[C@@H](CCC(N)=O)C(=O)NCC(=O)N1CCC[C@H]1C(=O)N[C@@H](CO)C(=O)N[C@@H](CO)C(=O)NCC(=O)N[C@@H](C)C(=O)N1CCC[C@H]1C(=O)N1CCC[C@H]1C(=O)N1CCC[C@H]1C(=O)N[C@@H](CO)C(N)=O)C(C)C` [Example 93] (H-Y[dA]EGTFISDYSILLDKIAQ[Aib]DFVNWK([AEEA-AEEA-γGlu-C18 diacid])LAQGPSSGAPPPS-NH2) the same measures were > 959 nM, 0.043 nM and > 909 nM.
